Experimental data: US10561703B2, “Method of modulating sex hormone levels using a sex hormone secretion modulator” (GEMVAX & KAEL CO., LTD., priority 2013, dated 2020)

System: LH
Test: LH level in blood (serum CLIA) after repeated sc PEP-1
Type: in vivo, SD rats
Method: PEP-1 (peptide of SEQ ID NO: 1), lyophilized white powder, obtained according to the method mentioned in example 1 was dissolved in 0.9% of saline, considering the correction factor of PEP-1 (purity: 94.13%, content: 92.36%, correction factor: 1.15). 50 mg/mL stock solution was further diluted into 20 mg/mL, 2 mg/mL, and 1 mg/mL with 0.9% saline, and stored at 4° C. for a week until the use.
The purpose of this example is to confirm the change of sexual hormones in blood from SD rats with 7 days repeated daily administration of SEQ ID NO: 1 peptide, PEP-1. This experiment followed the Ethics Regulation of Animal Test by KAMSI Inc. (Korea Animal Medical Science Institute). In addition, this experiment, Non-GLP experiment, referred to the MFDS (Ministry of Food and Drug Safety) notification; Agent 2013-40 (5th April 2013), Principles of Good Laboratory Practice (1997).
SPF Rats (Crlj:CD(SD)) were purchased from ORIENTBio Inc. (Mokdong-ri, Buk-myeon, Gapyeong-gun, Gyeonggi-do, Republic of Korea). 75 male (6.5 weeks old and 190˜210 g) and 75 female (6.5 weeks old and 160˜180 g) rats were monitored for 4 days, and 64 of male and female rats (each) were selected for the experiment. Raising condition is as follows; 23±3° C. of temperature, […] of relative humidity, 10˜20 times/hr of number of air changes, 12 hours (8 a.m.˜8 p.m.) of lighting with 150˜300 Lux of intensity.
64 male and female […] (mentioned above) were divided into 8 groups. Administration regimen, for example, drugs, routes, dosages, and volumes were as follows:
The detailed administration regimen is as follows; once a day, twice a day and twice a week in each experimental group. Injection initiated at 10 a.m. every day, and each rat was injected at one minute intervals. Rats in Group 9, 10, 13 and 14 were injected twice a week. Administration of high dose test agent preceded that of low dose. The volume of injection was calculated using recently measured weight of rats, and it was 5 mL/kg. Subcutaneous injection was performed as follows; assistant tilted the back of rat upward, and experimenter sterilized the back of rat with 70% alcohol, followed by subcutaneous injection of test agent with 26 G syringe.
1.4 mL of blood sample (0.7 mL of serum) was collected after measurement of weight (Day 0). Next day (1 Day), 1.4 mL of blood sample (0.7 mL of serum) was collected twice after injection of test agent (4 hrs and 8 hrs after administration of test agent). For next 6 days (Day 2˜Day 7), 1.4 mL of blood was extracted once everyday (4 hours after injection of test agent). Dose and volume of test agent of each group followed the Table 3, and injection time zone was same every day. Blood was extracted from the jugular vein, and left at room temperature for 30 minutes. Serum was separated using centrifugation (10,000 rpm for 5 minutes), and stored at −70±5° C. in Deep freezer until the use. Blood extraction from each subject was done in the same time zone every day.
A CLIA (Chemi-Luminescence Immune Assay) Kit was used to analyze Testosterone, Estradiol E2, FSH (Follicle stimulating hormone), and LH (Luteinizing hormone). Analysis was completed within 48 hrs after blood extraction (Laboratory Medicine Department, Chung-Ang University Hospital), and detailed method is as follows; One-way ANOVA was used to verify the comparison between the vehicle and PEP-1, and between different doses of PEP-1. For further analysis, Duncan test was used as parametric test and Dunnett's test as non-parametric test. p<0.05 represents the statistical significance, and all statistical analysis was carried out with SPSS 10.1.
LH was analyzed using the samples prepared from example 2. 50 μL of serum was used for analysis. Fundamentals of analysis is Two-site sandwich immunoassay based on direct chemi-luminescent. As mentioned in example 2, CLIA (Chemi-luminescence immune assay) Kit was used, following the manufacture's protocol.

Sequence: EARPALLTSRLRFIPK (listed as Homo sapiens) [PEP-1, hormone secretion modulator / GnRH analog]
- LH level in blood (G3 Male 5 mg/kg sc 1/day x7, 7 days): 0.13 mIU/mL
- LH level in blood (G4 Female 5 mg/kg sc 1/day x7, 4 hr): 0.16 mIU/mL
- LH level in blood (G4 Female 5 mg/kg sc 1/day x7, 8 hr): 0.24 mIU/mL
- LH level in blood (G4 Female 5 mg/kg sc 1/day x7, 2 days): 0.19 mIU/mL
- LH level in blood (G4 Female 5 mg/kg sc 1/day x7, 3 days): 0.13 mIU/mL
- LH level in blood (G4 Female 5 mg/kg sc 1/day x7, 4 days): 0.13 mIU/mL
- LH level in blood (G4 Female 5 mg/kg sc 1/day x7, 5 days): 0.14 mIU/mL
- LH level in blood (G4 Female 5 mg/kg sc 1/day x7, 6 days): 0.14 mIU/mL
- LH level in blood (G4 Female 5 mg/kg sc 1/day x7, 7 days): 0.16 mIU/mL
- LH level in blood (G4 Female 5 mg/kg sc 1/day x7, pre): 0.12 mIU/mL
- LH level in blood (G6 Female 10 mg/kg sc 1/day x7, 4 hr): 0.41 mIU/mL
- LH level in blood (G6 Female 10 mg/kg sc 1/day x7, 8 hr): 0.26 mIU/mL
- LH level in blood (G6 Female 10 mg/kg sc 1/day x7, 2 days): 0.22 mIU/mL
- LH level in blood (G6 Female 10 mg/kg sc 1/day x7, 3 days): 0.19 mIU/mL
- LH level in blood (G6 Female 10 mg/kg sc 1/day x7, 4 days): 0.15 mIU/mL
- LH level in blood (G6 Female 10 mg/kg sc 1/day x7, 5 days): 0.15 mIU/mL
- LH level in blood (G6 Female 10 mg/kg sc 1/day x7, 6 days): 0.17 mIU/mL
- LH level in blood (G6 Female 10 mg/kg sc 1/day x7, 7 days): 0.16 mIU/mL
- LH level in blood (G6 Female 10 mg/kg sc 1/day x7, pre): 0.12 mIU/mL
- LH level in blood (G8 Female 10 mg/kg sc 2/day x4, 4 hr): 0.22 mIU/mL
- LH level in blood (G8 Female 10 mg/kg sc 2/day x4, 8 hr): 0.15 mIU/mL
- LH level in blood (G8 Female 10 mg/kg sc 2/day x4, 2 days): 0.17 mIU/mL
- LH level in blood (G8 Female 10 mg/kg sc 2/day x4, 3 days): 0.28 mIU/mL
- LH level in blood (G8 Female 10 mg/kg sc 2/day x4, 4 days): 0.13 mIU/mL
- LH level in blood (G8 Female 10 mg/kg sc 2/day x4, 5 days): 0.23 mIU/mL
- LH level in blood (G8 Female 10 mg/kg sc 2/day x4, 6 days): 0.15 mIU/mL
- LH level in blood (G8 Female 10 mg/kg sc 2/day x4, 7 days): 0.28 mIU/mL
- LH level in blood (G8 Female 10 mg/kg sc 2/day x4, pre): 0.13 mIU/mL
- LH level in blood (G9 Male 10 mg/kg sc 2/week x2 (days 1,7), 4 hr): 0.62 mIU/mL
- LH level in blood (G9 Male 10 mg/kg sc 2/week x2 (days 1,7), 8 hr): 0.14 mIU/mL
- LH level in blood (G9 Male 10 mg/kg sc 2/week x2 (days 1,7), 2 days): 0.12 mIU/mL
- LH level in blood (G9 Male 10 mg/kg sc 2/week x2 (days 1,7), 3 days): 0.12 mIU/mL
- LH level in blood (G9 Male 10 mg/kg sc 2/week x2 (days 1,7), 4 days): 0.13 mIU/mL
- LH level in blood (G9 Male 10 mg/kg sc 2/week x2 (days 1,7), 5 days): 0.14 mIU/mL
- LH level in blood (G9 Male 10 mg/kg sc 2/week x2 (days 1,7), 6 days): 0.11 mIU/mL
- LH level in blood (G9 Male 10 mg/kg sc 2/week x2 (days 1,7), 7 days): 0.67 mIU/mL
- LH level in blood (G9 Male 10 mg/kg sc 2/week x2 (days 1,7), pre): 0.12 mIU/mL
- LH level in blood (G10 Female 10 mg/kg sc 2/week x2 (days 1,7), 4 hr): 0.25 mIU/mL
- LH level in blood (G10 Female 10 mg/kg sc 2/week x2 (days 1,7), 8 hr): 0.23 mIU/mL
- LH level in blood (G10 Female 10 mg/kg sc 2/week x2 (days 1,7), 2 days): 0.17 mIU/mL
- LH level in blood (G10 Female 10 mg/kg sc 2/week x2 (days 1,7), 3 days): 0.14 mIU/mL
- LH level in blood (G10 Female 10 mg/kg sc 2/week x2 (days 1,7), 4 days): 0.13 mIU/mL
- LH level in blood (G10 Female 10 mg/kg sc 2/week x2 (days 1,7), 5 days): 0.15 mIU/mL
- LH level in blood (G10 Female 10 mg/kg sc 2/week x2 (days 1,7), 6 days): 0.12 mIU/mL
- LH level in blood (G10 Female 10 mg/kg sc 2/week x2 (days 1,7), 7 days): 0.26 mIU/mL
- LH level in blood (G10 Female 10 mg/kg sc 2/week x2 (days 1,7), pre): 0.25 mIU/mL
- LH level in blood (G11 Male 100 mg/kg sc 1/day x7, 4 hr): 1.16 mIU/mL
- LH level in blood (G11 Male 100 mg/kg sc 1/day x7, 8 hr): 0.18 mIU/mL
- LH level in blood (G11 Male 100 mg/kg sc 1/day x7, 2 days): 0.28 mIU/mL
- LH level in blood (G11 Male 100 mg/kg sc 1/day x7, 3 days): 0.23 mIU/mL
- LH level in blood (G11 Male 100 mg/kg sc 1/day x7, 4 days): 0.18 mIU/mL
